Experimental data published in patent US11931424B2, “Combination MCL-1 inhibitors with anti-body drug conjugates” (Gilead Sciences, Inc., priority 2021, dated 2024).

System: panel of breast cancer cell lines
Test: Compound A with targeted agents and chemotherapies, 72-hour in vitro proliferation assays
Format: cell-based
Details: 72-hour proliferation
[1] = AU565 cell line, compound A × partner
[2] = BT-20 cell line, compound A × partner
[3] = BT-474 cell line, compound A × partner
[4] = BT-549 cell line, compound A × partner
[5] = CAL-51 cell line, compound A × partner
[6] = CAL-85-1 cell line, compound A × partner
[7] = CAL-120 cell line, compound A × partner
[8] = CAL-148 cell line, compound A × partner
[9] = CAMA-1 cell line, compound A × partner
[10] = DU-4475 cell line, compound A × partner
[11] = EVSA-T cell line, compound A × partner
[12] = MCF7 cells, Compound A × partner agent
[13] = MDA-MB-175-VII cells, Compound A × partner agent
[14] = MDA-MB-231 cells, Compound A × partner agent
[15] = MDA-MB-361 cells, Compound A × partner agent
[16] = MDA-MB-436 cells, Compound A × partner agent
[17] = MDA-MB-453 cells, Compound A × partner agent
[18] = MDA-MB-468 cells, Compound A × partner agent
[19] = SK-BR-3 cells, Compound A × partner agent
[20] = SUM159PT cells, combination of compound A with the named agent
[21] = T47D cells, combination of compound A with the named agent
[22] = ZR-75-1 cells, combination of compound A with the named agent
[23] = ZR-75-30 cells, combination of compound A with the named agent

C[C@]12CC[C@@H]3c4ccc(O)cc4C[C@@H](CCCCCCCCC[S+]([O-])CCCC(F)(F)C(F)(F)F)[C@H]3[C@@H]1CC[C@@H]2O (stereo partly shown) [Fulvestrant]
Bliss Volume [1]: 6.82
HSA volume [1]: 2.40
Loewe Volume [1]: 4.57
Synergy Score [1]: 3.43
Bliss Volume [2]: 3.55
HSA volume [2]: 3.62
Loewe Volume [2]: 3.44
Synergy Score [2]: 8.19
Bliss Volume [3]: 2.68
HSA volume [3]: 1.47
Loewe Volume [3]: 1.42
Synergy Score [3]: 6.48
Bliss Volume [4]: 3.56
HSA volume [4]: 7.74
Loewe Volume [4]: 7.73
Synergy Score [4]: 6.08
Bliss Volume [5]: 0.71
HSA volume [5]: −1.89
Loewe Volume [5]: 0.82
Synergy Score [5]: 0.47
Bliss Volume [6]: −4.57
HSA volume [6]: −0.20
Loewe Volume [6]: −0.68
Synergy Score [6]: 2.63
Bliss Volume [7]: −4.96
HSA volume [7]: −4.48
Loewe Volume [7]: −4.09
Synergy Score [7]: 0.28
Bliss Volume [8]: −1.80
HSA volume [8]: −2.13
Loewe Volume [8]: −0.78
Synergy Score [8]: 4.58
Bliss Volume [9]: 4.38
HSA volume [9]: −0.63
Loewe Volume [9]: −0.83
Synergy Score [9]: 2.09
Bliss Volume [10]: 4.93
HSA volume [10]: 0.13
Loewe Volume [10]: 4.51
Synergy Score [10]: 2.58
Bliss Volume [11]: 6.75
HSA volume [11]: 1.08
Loewe Volume [11]: 1.59
Synergy Score [11]: 3.72
Bliss Volume (HCC38, compound A × partner): −3.19
HSA volume (HCC38, compound A × partner): −1.37
Loewe Volume (HCC38, compound A × partner): −1.82
Synergy Score (HCC38, compound A × partner): 2.63
Bliss Volume (HCC70, compound A × partner): 10.34
HSA volume (HCC70, compound A × partner): 9.70
Loewe Volume (HCC70, compound A × partner): 10.67
Synergy Score (HCC70, compound A × partner): 17.18
Bliss Volume (HCC1143, compound A × partner): 0.82
HSA volume (HCC1143, compound A × partner): −4.16
Loewe Volume (HCC1143, compound A × partner): 0.02
Synergy Score (HCC1143, compound A × partner): 2.79
Bliss Volume (HCC1569, compound A × partner): 3.84
HSA volume (HCC1569, compound A × partner): 4.70
Loewe Volume (HCC1569, compound A × partner): 5.59
Synergy Score (HCC1569, compound A × partner): 5.92
Bliss Volume (HCC1806, compound A × partner): −0.20
HSA volume (HCC1806, compound A × partner): −0.86
Loewe Volume (HCC1806, compound A × partner): 1.90
Synergy Score (HCC1806, compound A × partner): 2.60
Bliss Volume (HCC1937, compound A × partner): 2.31
HSA volume (HCC1937, compound A × partner): −0.65
Loewe Volume (HCC1937, compound A × partner): 2.38
Synergy Score (HCC1937, compound A × partner): 2.38
Bliss Volume (HCC1954, compound A × partner): 11.35
HSA volume (HCC1954, compound A × partner): 12.18
Loewe Volume (HCC1954, compound A × partner): 11.84
Synergy Score (HCC1954, compound A × partner): 16.73
Bliss Volume (HCC2218, compound A × partner): 1.16
HSA volume (HCC2218, compound A × partner): 1.89
Loewe Volume (HCC2218, compound A × partner): −1.02
Synergy Score (HCC2218, compound A × partner): 3.85
Bliss Volume (HDQ-P1, compound A × partner): −5.92
HSA volume (HDQ-P1, compound A × partner): −6.15
Loewe Volume (HDQ-P1, compound A × partner): −5.56
Synergy Score (HDQ-P1, compound A × partner): 0.42
Bliss Volume (HMC-1-8, compound A × partner): 10.58
HSA volume (HMC-1-8, compound A × partner): 7.21
Loewe Volume (HMC-1-8, compound A × partner): 7.81
Synergy Score (HMC-1-8, compound A × partner): 13.30
Bliss Volume (JIMT-1, compound A × partner): 5.80
HSA volume (JIMT-1, compound A × partner): 0.54
Loewe Volume (JIMT-1, compound A × partner): 4.52
Synergy Score (JIMT-1, compound A × partner): 1.26
Bliss Volume (KPL-1, compound A × partner): 0.30
HSA volume (KPL-1, compound A × partner): 1.12
Loewe Volume (KPL-1, compound A × partner): 1.04
Synergy Score (KPL-1, compound A × partner): 2.75
Bliss Volume [12]: 11.46
HSA volume [12]: 11.54
Loewe Volume [12]: 11.41
Bliss Volume [13]: 11.56
HSA volume [13]: 1.65
Loewe Volume [13]: 10.58
Synergy Score [13]: 7.62
Bliss Volume [14]: 1.26
HSA volume [14]: −0.76
Loewe Volume [14]: 1.50
Synergy Score [14]: 1.17
Bliss Volume [15]: −3.29
HSA volume [15]: −1.23
Loewe Volume [15]: −0.47
Synergy Score [15]: 3.34
Bliss Volume [16]: 1.52
HSA volume [16]: 2.87
Loewe Volume [16]: 2.94
Synergy Score [16]: 3.30
Bliss Volume [17]: −0.77
HSA volume [17]: −3.96
Loewe Volume [17]: −1.85
Synergy Score [17]: 4.79
Bliss Volume [18]: 6.94
HSA volume [18]: 6.17
Loewe Volume [18]: 7.22
Bliss Volume [19]: −2.14
HSA volume [19]: −3.78
Loewe Volume [19]: −2.67
Synergy Score [19]: 2.05
Bliss Volume [20]: 2.51
HSA volume [20]: 0.14
Loewe Volume [20]: 2.16
Synergy Score [20]: 1.23
Bliss Volume [21]: 0.17
HSA volume [21]: 2.12
Loewe Volume [21]: 3.30
Synergy Score [21]: 4.16
Bliss Volume [22]: 5.80
HSA volume [22]: 4.00
Loewe Volume [22]: 6.17
Synergy Score [22]: 4.22
Bliss Volume [23]: 1.91
HSA volume [23]: 1.18
Loewe Volume [23]: 1.80
Synergy Score [23]: 4.50

CC(C)NC[C@@H](C(=O)N1CCN(c2ncnc3c2[C@H](C)C[C@H]3O)CC1)c1ccc(Cl)cc1 [GDC-0068]
Best CI [1]: 0.88
Bliss Volume [1]: 5.42
HSA volume [1]: 2.46
Loewe Volume [1]: 1.85
Synergy Score [1]: 6.93
Best CI [2]: 0.15
Bliss Volume [2]: 14.37
HSA volume [2]: 13.36
Loewe Volume [2]: 11.91
Synergy Score [2]: 26.99
Best CI [5]: 0.66
Bliss Volume [5]: 1.90
HSA volume [5]: 2.22
Loewe Volume [5]: 2.48
Synergy Score [5]: 1.93
Best CI [6]: 0.22
Bliss Volume [6]: −1.63
HSA volume [6]: 2.26
Loewe Volume [6]: 1.63
Synergy Score [6]: 4.37
Best CI [7]: 0.04
Bliss Volume [7]: −1.18
HSA volume [7]: −0.50
Loewe Volume [7]: 0.09
Synergy Score [7]: 1.05
Best CI [8]: 0.20
Bliss Volume [8]: 15.98
HSA volume [8]: 11.23
Loewe Volume [8]: 11.35
Synergy Score [8]: 22.09
Best CI [9]: 0.11
Bliss Volume [9]: 26.60
HSA volume [9]: 14.33
Loewe Volume [9]: 13.52
Synergy Score [9]: 27.46
Bliss Volume [10]: −5.18
HSA volume [10]: −7.77
Loewe Volume [10]: −5.05
Synergy Score [10]: 0.20
Best CI [11]: 0.27
Bliss Volume [11]: 38.10
HSA volume [11]: 10.77
Loewe Volume [11]: 8.56
Synergy Score [11]: 18.16
Best CI (HCC38, compound A × partner): 1.04
Bliss Volume (HCC38, compound A × partner): 3.63
HSA volume (HCC38, compound A × partner): 6.49
Loewe Volume (HCC38, compound A × partner): 5.61
Synergy Score (HCC38, compound A × partner): 5.92
Best CI (HCC70, compound A × partner): 0.30
Bliss Volume (HCC70, compound A × partner): 19.29
HSA volume (HCC70, compound A × partner): 14.42
Loewe Volume (HCC70, compound A × partner): 13.10
Synergy Score (HCC70, compound A × partner): 27.63
Best CI (HCC1143, compound A × partner): 0.56
Bliss Volume (HCC1143, compound A × partner): 1.41
HSA volume (HCC1143, compound A × partner): −1.97
Loewe Volume (HCC1143, compound A × partner): 1.22
Synergy Score (HCC1143, compound A × partner): 3.73
Best CI (HCC1569, compound A × partner): 0.24
Bliss Volume (HCC1569, compound A × partner): 9.34
HSA volume (HCC1569, compound A × partner): 10.52
Loewe Volume (HCC1569, compound A × partner): 10.52
Synergy Score (HCC1569, compound A × partner): 15.41
Best CI (HCC1806, compound A × partner): 0.83
Bliss Volume (HCC1806, compound A × partner): 4.78
HSA volume (HCC1806, compound A × partner): −2.22
Loewe Volume (HCC1806, compound A × partner): 2.14
Synergy Score (HCC1806, compound A × partner): 2.21
Best CI (HCC1937, compound A × partner): 0.44
Bliss Volume (HCC1937, compound A × partner): 8.88
HSA volume (HCC1937, compound A × partner): 6.08
Loewe Volume (HCC1937, compound A × partner): 8.48
Synergy Score (HCC1937, compound A × partner): 6.18
Best CI (HCC1954, compound A × partner): 0.16
Bliss Volume (HCC1954, compound A × partner): 19.16
HSA volume (HCC1954, compound A × partner): 18.41
Loewe Volume (HCC1954, compound A × partner): 17.07
Synergy Score (HCC1954, compound A × partner): 33.91
Best CI (HCC2218, compound A × partner): 0.13
Bliss Volume (HCC2218, compound A × partner): 10.70
HSA volume (HCC2218, compound A × partner): 8.89
Loewe Volume (HCC2218, compound A × partner): 7.71
Synergy Score (HCC2218, compound A × partner): 22.09
Best CI (HDQ-P1, compound A × partner): 1.46
Bliss Volume (HDQ-P1, compound A × partner): −1.34
HSA volume (HDQ-P1, compound A × partner): −1.27
Loewe Volume (HDQ-P1, compound A × partner): −2.21
Synergy Score (HDQ-P1, compound A × partner): 1.94
Best CI (HMC-1-8, compound A × partner): 0.26
Bliss Volume (HMC-1-8, compound A × partner): 17.75
HSA volume (HMC-1-8, compound A × partner): 12.01
Loewe Volume (HMC-1-8, compound A × partner): 12.08
Synergy Score (HMC-1-8, compound A × partner): 21.76
Best CI (JIMT-1, compound A × partner): 0.26
Bliss Volume (JIMT-1, compound A × partner): 2.76
HSA volume (JIMT-1, compound A × partner): 1.18
Loewe Volume (JIMT-1, compound A × partner): 1.53
Synergy Score (JIMT-1, compound A × partner): 1.19
Synergy Score (KPL-1, compound A × partner): 10.58
